These compounds were tested against T1, Axl (Homo sapiens, UniProt P30530) (assay: Phospho-Akt in-cell Western assay (inhibition of Axl activity)). Conditions: Table 2; Hela cells, Axl antibody cross-linking stimulation, phospho-Akt chemiluminescence.
T1 construct: endogenous in cells; host or cells: HeLa cells
T1 sequence (P30530 26-894): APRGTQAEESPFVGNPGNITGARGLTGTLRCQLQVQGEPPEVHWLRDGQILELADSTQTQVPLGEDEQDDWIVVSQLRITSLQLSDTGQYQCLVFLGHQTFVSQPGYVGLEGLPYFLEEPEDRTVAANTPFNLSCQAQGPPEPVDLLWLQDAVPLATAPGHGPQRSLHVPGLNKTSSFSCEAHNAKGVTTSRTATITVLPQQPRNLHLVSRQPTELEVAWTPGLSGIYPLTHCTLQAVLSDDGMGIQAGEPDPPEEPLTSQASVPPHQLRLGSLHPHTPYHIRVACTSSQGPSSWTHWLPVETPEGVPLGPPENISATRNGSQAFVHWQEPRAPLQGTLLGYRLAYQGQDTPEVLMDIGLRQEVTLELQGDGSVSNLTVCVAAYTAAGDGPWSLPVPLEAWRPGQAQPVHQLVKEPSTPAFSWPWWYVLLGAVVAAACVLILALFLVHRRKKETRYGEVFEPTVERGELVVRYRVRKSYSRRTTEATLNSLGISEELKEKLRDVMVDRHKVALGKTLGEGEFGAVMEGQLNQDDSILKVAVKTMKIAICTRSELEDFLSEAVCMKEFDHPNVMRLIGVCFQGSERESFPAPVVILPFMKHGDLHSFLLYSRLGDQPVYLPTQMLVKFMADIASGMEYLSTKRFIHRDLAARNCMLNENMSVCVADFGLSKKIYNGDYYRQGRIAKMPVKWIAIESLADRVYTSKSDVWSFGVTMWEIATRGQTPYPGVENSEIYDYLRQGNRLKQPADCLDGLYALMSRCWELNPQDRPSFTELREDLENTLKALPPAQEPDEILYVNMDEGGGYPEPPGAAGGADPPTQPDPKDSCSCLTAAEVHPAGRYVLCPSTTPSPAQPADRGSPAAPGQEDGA
Assay type: cell-based
Method in brief: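 HeLa cells on poly-L-lysine, starved 24 h in 0.5% FCS DMEM with Axl/Fc 500 ng/mL, pre-treated with compound 1 h at 37° C. Axl stimulated 5 min by anti-Axl/anti-mouse antibody cross-linking. Fixed cells probed with anti-phospho-Akt and HRP secondary, chemiluminescence read.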

Row | IC50 [µM] | SMILES
1 | > 20 | CC(C)c1ccc(C(=O)n2nc(N)nc2Nc2ccc3c(c2)OCCO3)cc1 [compound 233, 3-amino-5-(1,4-benzodioxan-6-yl)amino-1-(4-iso-propylphenyl)carbonyl-1H-1,2,4-triazole]
2 | > 20 | Cc1ccc(C(=O)n2nc(N)nc2Nc2ccc3c(c2)OCCO3)cc1C [compound 236, 3-amino-1-(3,4-dimethylphenyl)carbonyl-5-(1,4-benzodioxan-6-yl)amino-1H-1,2,4-triazole]
3 | > 20 | CSc1ccc(C(=O)n2nc(N)nc2Nc2ccc3c(c2)OCCO3)cc1 [compound 238, 3-amino-5-(1,4-benzodioxan-6-yl)amino-1-(4-thiomethylphenyl)carbonyl-1H-1,2,4-triazole]

The remaining lines, values behind:

Row | SMILES | IC50 [µM]
4 | Nc1nc(Nc2ccc3c(c2)OCCO3)n(C(=O)c2cccc(OCCC3OCCO3)c2)n1 [compound 209] | > 20
5 | Nc1nc(Nc2ccc3c(c2)OCCO3)n(C(=O)c2ccc(OCCC3OCCO3)cc2)n1 [compound 213] | > 20

Same assay, conditions: Table 3; Hela cells, Axl antibody cross-linking stimulation, phospho-Akt chemiluminescence

Row | IC50 [µM] | SMILES
6 | > 20 | Nc1nc(Nc2ccc(OCCN3CCCC3)cc2)nn1C(=O)c1ccccn1 [compound 203, 5-amino-1-(pyridin-2-yl)carbonyl-3-[4-[2-(pyrrolidin-1-yl)ethoxy]phenylamino]-1H-1,2,4-triazole]
7 | > 20 | Nc1nc(Nc2ccc(OCCN3CCCC3)cc2)nn1C(=O)c1ccncc1 [compound 204, 5-amino-1-(pyridin-4-yl)carbonyl-3-[4-[2-(pyrrolidin-1-yl)ethoxy]phenylamino]-1H-1,2,4-triazole]

Same assay, conditions: Table 5; Hela cells, Axl antibody cross-linking stimulation, phospho-Akt chemiluminescence

Row | IC50 [µM] | SMILES
8 | 1 to 10 | Cc1cccc(C(=O)n2nc(Nc3ccc4c(cnn4C)c3)nc2N)c1 [compound 227, 5-amino-3-[1-methyl-1H-indazol-5-yl]amino-1-(3-methylphenyl)carbonyl-1H-1,2,4-triazole]
9 | 1 to 10 | Cc1cccc(C(=O)n2nc(Nc3ccc4occc4c3)nc2N)c1 [compound 229, 5-amino-3-(benzofuran-5-yl)amino-1-(3-methylphenyl)carbonyl-1H-1,2,4-triazole]

Continued, compound first:

Row | SMILES | IC50 [µM]
10 | Cc1cccc(C(=O)n2nc(Nc3ccc4c(c3)N(C(=O)OC(C)(C)C)CCO4)nc2N)c1 [compound 206, 5-amino-3-[(2H,3H-4-tert-butoxycarbonylbenzo[1,4]oxazin-6-yl)amino]-1-(3-methylphenyl)carbonyl-1,2,4-triazole] | > 20
11 | Cc1cccc(C(=O)n2nc(Nc3ccc4oc(C(=O)NCCOC5CCCCO5)cc4c3)nc2N)c1 (stereo not drawn) [compound 207, 5-amino-1-(3-methylphenyl)carbonyl-3-[2-[N-[2-(tetrahydropyran-2-yloxy)ethyl]amino]carbonylbenzofuran-5-yl]amino-1H-1,2,4-triazole] | 1 to 10
12 | Cc1cccc(C(=O)n2nc(Nc3ccc4oc(C(=O)NCCO)cc4c3)nc2N)c1 [compound 208, 5-amino-3-[2-[2-hydroxyethylaminocarbonyl]benzofuran-5-yl]amino-1-(3-methylphenyl)carbonyl-1H-1,2,4-triazole] | 1 to 10
13 | Cc1cccc(C(=O)n2nc(Nc3ccc4c(c3)NCCO4)nc2N)c1 [compound 215, 5-amino-3-[(3,4-dihydrobenzo[1,4]oxazin-6-yl)amino]-1-(3-methylphenyl)carbonyl-1H-1,2,4-triazole] | > 20
14 | CCOC(=O)c1cc2cc(Nc3nc(N)n(C(=O)c4cccc(C)c4)n3)ccc2o1 [compound 219, 5-amino-3-[2-(ethoxycarbonyl)benzofuran-5-yl]amino-1-(3-methylphenyl)carbonyl-1H-1,2,4-triazole] | 1 to 10
15 | Cc1cccc(C(=O)n2nc(Nc3cccnc3)nc2N)c1 [compound 220, 5-amino-1-(3-methylphenyl)carbonyl-3-(pyridin-3-yl)amino-1H-1,2,4-triazole] | > 20
16 | Cc1cccc(C(=O)n2nc(Nc3ccc4nn(C)cc4c3)nc2N)c1 [compound 222, 5-amino-3-(2-methyl-2H-indazol-5yl)amino-1-(3-methylphenyl)carbonyl-1H-1,2,4-triazole] | > 20

Same assay, conditions: inhibition of Axl activity, Table 1

Row | IC50 [µM] | SMILES
17 | 1 to 10 | Cc1cccc(C(=O)n2nc(Nc3cccc(OCC(=O)NCCO)c3)nc2N)c1 [compound 225, 5-amino-3-[3-((2-hydroxyethyl)aminocarbonylmethoxy)phenyl]amino-1-(3-methylphenyl)carbonyl-1H-1,2,4-triazole]
18 | 1 to 10 | Nc1nc(Nc2ccc3c(c2)OCCO3)nn1C(=O)c1ccc(OCCN2CCCCC2)cc1 [compound 226]
19 | > 20 | Nc1nc(Nc2ccc3c(c2)OCCO3)nn1C(=O)c1cccc(OCC(F)(F)F)c1 [compound 228, 5-amino-3-(1,4-benzodioxan-6-yl)amino-1-(3-(2,2,2-trifluoroethoxy)phenyl)carbonyl-1H-1,2,4-triazole]
20 | > 20 | Nc1nc(Nc2ccc3c(c2)OCCO3)nn1C(=O)c1ccc(OCC(F)(F)F)cc1 [compound 230, 5-amino-3-(1,4-benzodioxan-6-yl)amino-1-(4-(2,2,2-trifluoroethoxy)phenyl)carbonyl-1H-1,2,4-triazole]
21 | > 20 | NC(=O)COc1cccc(C(=O)n2nc(Nc3ccc4c(c3)OCCO4)nc2N)c1 [compound 231, 5-amino-1-(3-aminocarbonylmethoxy)phenylcarbonyl-3-(1,4-benzodioxan-6-yl)amino-1H-1,2,4-triazole]
22 | 1 to 10 | CC(C)c1ccc(C(=O)n2nc(Nc3ccc4c(c3)OCCO4)nc2N)cc1 [compound 232, 5-amino-3-(1,4-benzodioxan-6-yl)amino-1-(4-iso-propylphenyl)carbonyl-1H-1,2,4-triazole]
23 | 1 to 10 | Cc1ccc(C(=O)n2nc(Nc3ccc4c(c3)OCCO4)nc2N)cc1C [compound 234, 5-amino-1-(3,4-dimethylphenyl)carbonyl-3-(1,4-benzodioxan-6-yl)amino-1H-1,2,4-triazole]
24 | 1 to 10 | Cc1cccc(C(=O)n2nc(Nc3cccc(OCS(C)(=O)=O)c3)nc2N)c1 [compound 235, 5-amino-1-(3-methylphenyl)carbonyl-3-[3-(methylsulfonylmethoxy)phenyl]amino-1H-1,2,4-triazole]
25 | 1 to 10 | CSc1ccc(C(=O)n2nc(Nc3ccc4c(c3)OCCO4)nc2N)cc1 [compound 237, 5-amino-3-(1,4-benzodioxan-6-yl)amino-1-(4-thiomethylphenyl)carbonyl-1H-1,2,4-triazole]

Continued, compound first:

Row | SMILES | IC50 [µM]
26 | Nc1nc(Nc2ccc3c(c2)OCCO3)nn1C(=O)c1cccc(OCCC2OCCO2)c1 [compound 210] | 1 to 10
27 | Cc1ccc(C(=O)n2nc(Nc3ccccc3O)nc2N)cc1 [compound 211, 5-amino-3-[2-(hydroxyl)phenylamino]-1-(4-methylphenyl)carbonyl-1H-1,2,4-triazole] | > 20
28 | COCCOCOc1cccc(Nc2nc(N)n(C(=O)c3cccc(C)c3)n2)c1 [compound 212, 5-amino-1-(3-methylphenyl)carbonyl-3-[3-[(2-methoxyethoxy)methoxy]phenylamino]-1H-1,2,4-triazole] | 1 to 10
29 | Nc1nc(Nc2ccc3c(c2)OCCO3)nn1C(=O)c1ccc(OCCC2OCCO2)cc1 [compound 214] | 1 to 10
30 | COCOc1cccc(Nc2nc(N)n(C(=O)c3cccc(C)c3)n2)c1 [compound 216, 5-amino-3-(3-methoxymethoxy)phenylamino-1-(3-methylphenyl)carbonyl-1H-1,2,4-triazole] | > 20
31 | Nc1nc(Nc2ccc(Cl)cc2)nn1C(=O)c1ccc(Cl)cc1 [compound 217, 5-amino-3-(4-chlorophenyl)amino-1-(4-chlorophenyl)carbonyl-1H-1,2,4-triazole] | > 20
32 | Nc1nc(Nc2ccc(Br)cc2)nn1C(=O)c1ccc(Cl)cc1 [compound 218, 5-amino-3-(4-bromophenyl)amino-1-(4-chlorophenyl)carbonyl-1H-1,2,4-triazole] | 1 to 10
33 | Cc1cccc(C(=O)n2nc(Nc3cccc(OCC(=O)OC(C)(C)C)c3)nc2N)c1 [compound 221, 5-amino-1-(3-methylphenyl)carbonyl-3-[(3-tert-butoxycarbonylmethoxy)phenyl]amino-1H-1,2,4-triazole] | 1 to 10
34 | Cc1cccc(C(=O)n2nc(Nc3cccc(OCC(=O)NCCOC4CCCCO4)c3)nc2N)c1 (stereo not drawn) [compound 223] | 1 to 10
35 | Cc1cccc(C(=O)n2nc(Nc3cccc(OCC(=O)O)c3)nc2N)c1 [compound 224, 5-amino-3-(3-hydroxycarbonylmethoxy)phenylamino-1-(3-methylphenyl)carbonyl-1H-1,2,4-triazole] | > 20

Same assay, conditions: inhibition of Axl activity, phospho-Akt in-cell Western assay; Table 1

Row | IC50 [µM] | SMILES
36 | 1 to 10 | Cc1cc(C)cc(C(=O)n2nc(Nc3ccc4c(c3)OCCO4)nc2N)c1 [compound 239, 5-amino-3-(1,4-benzodioxan-6-yl)amino-1-(3,5-dimethylphenyl)carbonyl-1H-1,2,4-triazole]

From US8389557B2, “Triazole derivatives useful as Axl inhibitors” (Rigel Pharmaceuticals, Inc., priority 2005, dated 2013)
